The subject of this experiment is MRP1 cells, doxorubicin viability shift, 10 uM compound. As to the kind of experiment: viability protection against doxorubicin, MRP-1 line – cell-based, doxorubicin EC50 shift, dose response (AID 844). To be noted: for EC50: measured here: doxorubicin EC50 with compound.

The source made the active and inactive calls. No rule for the calls is given here.

In general, EC50 refers to the concentration that produces a half-maximal response.

In the case of `O=C1c2cccc(OCc3ccc(F)cc3)c2CCN1Cc1ccc(F)cc1`, the fold increase in Dox EC50 is 1.08 (inactive) and the EC50 amounted to 5.82 µM.

For the compound `O=C(COc1ccc(F)cc1)Nc1ccc(-n2cnnn2)cc1`, the fold increase in Dox EC50 is 0.75 (inactive) and the concentration giving a half-maximal response (EC50) stood at 4.04 µM.

With `Nn1c(SCC(=O)Nc2ccccc2F)nc2ccccc2c1=O`, the fold increase in Dox EC50 is 1.41 (inactive) and the 50% effective concentration (EC50) was 7.59 µM.

On to `O=C1CC(N2CCC(O)(c3ccc(Br)cc3)CC2)C(=O)N1c1ccc(Cl)cc1` (centres undefined), for which the fold increase in Dox EC50 was 1.37 (inactive) and the half-maximal effective concentration (EC50) came to 7.39 µM.

Consider `N=C(N)SCc1cccc2ccccc12`, for which the fold increase in Dox EC50 was 0.35 (inactive) and the EC50 stood at 1.9 µM.

Take `C=C(Cl)COc1ccc2c(CCCC)cc(=O)oc2c1`: the fold increase in Dox EC50 is 0.81 (inactive) and the EC50 is 4.35 µM.

In the case of `Cc1cccc(N2CCN(C(=O)Cc3ccc(Br)cc3)CC2)c1C`, the fold increase in Dox EC50 is 0.95 (inactive) and the concentration giving a half-maximal response (EC50) was 5.11 µM.

Take `CCC1SC2=NC(C)=C(C(=O)OCCOC)C(c3ccc(C(=O)OC)cc3)N2C1=O` (centres undefined): the fold increase in Dox EC50 was 0.92 (inactive) and the EC50 was 4.98 µM.

With `O=C(Nc1ccn(Cc2c(F)c(F)cc(F)c2F)n1)c1ccc(COc2ccc(Cl)cc2Cl)o1`, the fold increase in Dox EC50 was 1.01 (inactive) and the EC50 came out at 5.45 µM.

Turning to `COc1ccc(C(=O)NCc2ccccc2)cc1S(=O)(=O)N1CCCc2ccccc21`, the fold increase in Dox EC50 is 0.56 (inactive) and the 50% effective concentration (EC50) came to 3.02 µM.

On to `N#C/C(=N\Nc1ccccc1F)C(=N)N1CCCCC1`, for which the fold increase in Dox EC50 is 0.79 (inactive) and the concentration giving a half-maximal response (EC50) turned out to be 4.26 µM.

For the compound `COc1ccc(CNc2nc(NCc3ccc(OC)cc3)n(C(=O)c3ccccc3[N+](=O)[O-])n2)cc1`, the fold increase in Dox EC50 was 0.72 (inactive) and the EC50 came out at 3.9 µM.

In the case of `N=C(N)SCc1ccccn1`, the fold increase in Dox EC50 was 0.54 (inactive) and the EC50 turned out to be 2.9 µM.

Turning to `Cc1cc(C)nc(NN2C(=O)/C(=C/c3ccccc3)SC2=S)n1`, the fold increase in Dox EC50 is 1.56 and the EC50 stood at 8.42 µM.

For the compound `CCOC(=O)C1=C(C)Nc2sc(C(=O)c3ccc(C)cc3)c(N)c2C1c1ccc(C(=O)OC)cc1` (centres undefined), the fold increase in Dox EC50 was 0.36 (inactive) and the EC50 worked out at 1.96 µM.

As to `C=CCOC(=O)C(C#N)c1nc2ccccc2nc1N1CCN(c2ccccc2OCC)CC1` (centres undefined), the fold increase in Dox EC50 is 0.56 (inactive) and the concentration giving a half-maximal response (EC50) is 3.05 µM.

Consider `COc1cccc(C2CC(c3ccc(Cl)cc3Cl)n3nc(N)nc3N2)c1` (centres undefined), for which the fold increase in Dox EC50 was 1.03 (inactive) and the EC50 was 5.56 µM.

For `C[C@H](C(=O)C=[N+]=[N-])N1C(=O)c2ccccc2C1=O`, the fold increase in Dox EC50 was 0.56 (inactive) and the concentration giving a half-maximal response (EC50) was 3.04 µM.

On to `CCCCc1nnc(NC(=O)CSc2nc(=O)cc(N)n2-c2cccc(C)c2)s1`, for which the fold increase in Dox EC50 was 1.31 (inactive) and the EC50 was 7.08 µM.

Consider `CC1(C)O[C@@H]2C[C@H]3[C@@H]4C[C@H](F)C5=CC(=O)CC[C@]5(C)[C@H]4[C@@H](O)C[C@]3(C)[C@]2(C(=O)CO)O1`, for which the fold increase in Dox EC50 was 0.65 (inactive) and the concentration for a half-maximal effect (EC50) is 3.52 µM.

Take `O=C(CCN1C(=O)/C(=C\c2ccccc2)SC1=S)NNC(=O)c1cccnc1`: the fold increase in Dox EC50 was 1.2 (inactive) and the half-maximal effective concentration (EC50) was found to be 6.49 µM.

On to `Cn1nccc1CNC(=O)c1ccnn1C`, for which the fold increase in Dox EC50 was 0.66 (inactive) and the 50% effective concentration (EC50) worked out at 3.56 µM.

Regarding `COc1ccccc1CNC(=O)Cn1cc2c(n1)CCCC2`, the fold increase in Dox EC50 is 1.66 and the EC50 is 8.94 µM.

Consider `CC(/C=C1\SC(=O)N(CC(=O)Nc2ccc(O)cc2)C1=O)=C\c1ccccc1`, for which the fold increase in Dox EC50 is 0.68 (inactive) and the 50% effective concentration (EC50) turned out to be 3.7 µM.

Turning to `N#Cc1c(-c2ccccc2)nc(SCC(=O)Nc2ccccc2F)[nH]c1=O`, the fold increase in Dox EC50 is 1.79 and the EC50 is 9.66 µM.

Regarding `COc1ccc(-c2nc(-c3cccc(C)c3)no2)cc1OC`, the fold increase in Dox EC50 is 0.69 (inactive) and the EC50 amounted to 3.73 µM.

For the compound `O=C(COc1ccc(Cl)cc1)NCc1nnc(SCC(=O)NCc2ccc3c(c2)OCO3)o1`, the fold increase in Dox EC50 was 1.06 (inactive) and the concentration giving a half-maximal response (EC50) came out at 5.74 µM.

Turning to `Cn1c(=O)[nH]c(=O)c2c1nc(SCC(=O)Nc1ccccc1)n2Cc1ccccc1`, the fold increase in Dox EC50 is 0.45 (inactive) and the EC50 is 2.44 µM.

With `COc1ccc(N2C(=O)CC(N3CCC(O)(c4cccc(C(F)(F)F)c4)CC3)C2=O)cc1` (centres undefined), the fold increase in Dox EC50 is 0.89 (inactive) and the EC50 was found to be 4.82 µM.

On to `CC(C)c1ccc(CNc2cc(N3CCCC3)ccc2[N+](=O)[O-])cc1`, for which the fold increase in Dox EC50 was 0.81 (inactive) and the EC50 worked out at 4.36 µM.

As to `O=C(Nc1cccnc1)C1CC(c2ccc(Cl)c(Cl)c2)=NO1` (centres undefined), the fold increase in Dox EC50 is 1.32 (inactive) and the EC50 was determined as 7.13 µM.

Turning to `CCNc1oc(-c2cccc3ccccc23)nc1C#N`, the fold increase in Dox EC50 was 0.68 (inactive) and the EC50 was found to be 3.68 µM.

With `COc1ccc(CNc2nc(NCc3ccc(OC)cc3)n(S(C)(=O)=O)n2)cc1`, the fold increase in Dox EC50 is 1.07 (inactive) and the concentration giving a half-maximal response (EC50) came to 5.78 µM.

In the case of `CCCCCCn1c(O)c(/C=C2\C=NN=C2c2ccccc2)sc1=S`, the fold increase in Dox EC50 was 0.77 (inactive) and the EC50 is 4.16 µM.

For the compound `c1coc(C2Nc3cccc4cccc(c34)N2)c1`, the fold increase in Dox EC50 was 0.21 (inactive) and the half-maximal effective concentration (EC50) is 1.13 µM.

Take `O=C1[C@@H]2C(Cc3ccc(O)cc3)NC3(C(=O)Nc4ccc(F)cc43)[C@@H]2C(=O)N1c1ccc(F)cc1` (some centres undefined): the fold increase in Dox EC50 was 1.39 (inactive) and the concentration for a half-maximal effect (EC50) was determined as 7.52 µM.

`CC(C)Oc1ccc(CSC(=N)N)cc1`: the fold increase in Dox EC50 was 0.89 (inactive) and the EC50 came to 4.81 µM.

For the compound `Cc1cccc(C)c1-n1c(C)cc(/C=C2\C(=O)NN(c3ccccc3)C2=O)c1C`, the fold increase in Dox EC50 is 0.63 (inactive) and the EC50 was determined as 3.39 µM.

Consider `O=C(Nc1nc(-c2cccs2)c(-c2cccs2)s1)C1(c2ccccc2)CC1`, for which the fold increase in Dox EC50 is 0.66 (inactive) and the EC50 was 3.58 µM.

As for `CC(CCc1ccccc1)NC(=O)C1CCN(C(=O)c2sccc2-n2cccc2)CC1` (centres undefined), the fold increase in Dox EC50 was 0.28 (inactive) and the half-maximal effective concentration (EC50) is 1.51 µM.

In the case of `COc1ccc(C(=O)Nc2ccc(Cl)c(S(=O)(=O)Nc3ccccc3OC)c2)cc1`, the fold increase in Dox EC50 was 0.57 (inactive) and the EC50 worked out at 3.05 µM.

For the compound `CCSc1nnc(-c2ccc(C)cc2)c2ccccc12`, the fold increase in Dox EC50 is 0.61 (inactive) and the EC50 was 3.3 µM.

As to `Cc1ccc(/C=C2\SC(=S)N(CCCC(=O)Nc3nccs3)C2=O)cc1`, the fold increase in Dox EC50 was 0.3 (inactive) and the concentration for a half-maximal effect (EC50) turned out to be 1.64 µM.

With `COc1ccc(-c2cc(C(=O)Nc3sc4c(c3C#N)CCCC4)c3ccccc3n2)cc1`, the fold increase in Dox EC50 is 1.18 (inactive) and the EC50 was 6.37 µM.

In the case of `CCCC1S/C(=N/N=C/c2ccc(OC)cc2)N(Cc2ccccc2)C1=O` (centres undefined), the fold increase in Dox EC50 was 1 (inactive) and the EC50 was determined as 5.39 µM.

Consider `CC(=O)Nc1ccc(-n2c(C)nc(=O)c(-c3ccccc3)c2C)cc1`, for which the fold increase in Dox EC50 was 0.89 (inactive) and the half-maximal effective concentration (EC50) stood at 4.83 µM.

Turning to `COc1ccc(CSC2=NCCN2)cc1Cl`, the fold increase in Dox EC50 is 0.63 (inactive) and the EC50 was determined as 3.4 µM.

As for `N=C(N)SCc1ccccc1Cl`, the fold increase in Dox EC50 is 0.42 (inactive) and the half-maximal effective concentration (EC50) is 2.25 µM.

Turning to `Cc1onc(-c2ccccc2Cl)c1C(=O)OCC(=O)Nc1ccc2c(c1)OCO2`, the fold increase in Dox EC50 is 1.19 (inactive) and the concentration for a half-maximal effect (EC50) came out at 6.42 µM.

As to `Cc1ccc(/C=N/NC(=O)CSCc2ccc(Cl)cc2)cc1`, the fold increase in Dox EC50 was 1.19 (inactive) and the concentration giving a half-maximal response (EC50) was 6.44 µM.

For the compound `CCOC(=O)C1=C(C)Nc2sc(C(=O)c3ccc(OC)cc3)c(N)c2C1c1ccc(C(=O)OC)cc1` (centres undefined), the fold increase in Dox EC50 is 0.2 (inactive) and the EC50 was 1.09 µM.

`Cc1ccc(OCc2nnc(SCC(=O)Nc3cccc4ccccc34)n2-c2ccccc2)cc1`: the fold increase in Dox EC50 was 0.33 (inactive) and the EC50 was found to be 1.8 µM.

In the case of `O=C(COc1ccc(Cl)cc1)N1CCN(S(=O)(=O)c2ccccc2)CC1`, the fold increase in Dox EC50 was 0.68 (inactive) and the EC50 came to 3.68 µM.

Turning to `COc1ncnc2c1oc1nc(CC(C)C)c3c(c12)CCCC3`, the fold increase in Dox EC50 was 0.66 (inactive) and the EC50 is 3.57 µM.

As to `O=C(/C=C/c1ccc([N+](=O)[O-])cc1)N1CCN(c2ccccc2F)CC1`, the fold increase in Dox EC50 was 0.56 (inactive) and the 50% effective concentration (EC50) is 3.05 µM.

As to `Cc1cc(C)n(-c2ccc(C(=O)Nc3cccc(S(=O)(=O)N(C)C)c3)cc2)n1`, the fold increase in Dox EC50 was 0.73 (inactive) and the EC50 came out at 3.93 µM.

With `C=CCOc1c(CNc2ccc(C(=O)O)cc2)cccc1OCC`, the fold increase in Dox EC50 is 0.59 (inactive) and the EC50 is 3.21 µM.

Take `Cc1ccc(N/N=C(\C#N)C(N)=S)c(C)c1`: the fold increase in Dox EC50 was 0.6 (inactive) and the EC50 stood at 3.25 µM.

With `Cc1ccc(/C=C2\SC(=S)N(CCC(=O)NNS(=O)(=O)c3ccc(C)cc3)C2=O)cc1`, the fold increase in Dox EC50 is 0.48 (inactive) and the EC50 was 2.6 µM.

In the case of `O=C(NC(=S)Nc1ccccc1N1CCCCC1)c1ccc(-c2cccc([N+](=O)[O-])c2)o1`, the fold increase in Dox EC50 is 1.3 (inactive) and the 50% effective concentration (EC50) is 7.02 µM.

As for `O=C(NCc1ccccc1)C(c1ccc(O)cc1)N(C(=O)Cn1nnc(-c2cccs2)n1)c1ccc2c(c1)OCCO2` (centres undefined), the fold increase in Dox EC50 is 0.86 (inactive) and the EC50 is 4.66 µM.

On to `O=c1nc2s/c(=C\c3ccc(-c4ccccc4[N+](=O)[O-])o3)c(=O)n2nc1-c1ccccc1`, for which the fold increase in Dox EC50 was 1.43 (inactive) and the EC50 was found to be 7.73 µM.

Values taken from PubChem BioAssay AID844 (SRMLSC, 2007).
